From patent US6451288B1, “Method of treating lung diseases with uridine 5′-diphosphate and analogs thereof” (The University of North Carolina at Chapel Hill, priority 1997, dated 2002)

Experiments:
[1] = system: human nasal epithelial cells; assay: Cl- secretion (transepithelial potential difference, Ussing chamber) in human nasal epithelial cells; assay type: cell-based
Protocol: (§1) Human nasal epithelial cells were harvested from turbinates using protease XIV (Sigma, St. Louis, Mo.) for 24-48 h at 4° C., as previously described. R. Wu, et al., Am. Rev. Respir. Dis. 132, 311-320 (1985). Cytosolic Ca^2+ and inositol phosphate measurements were made on nasal cell monolayers plated on porous Transwell Col filters (pore diameter 0.45 μm; Costar, Cambridge, Mass.) and maintained in Ham's F12 media supplemented with 10 ng/mL epidermal growth factor, 3.75 ng/mL endothelial cell growth factor, 500 ng/mL hydrocortisone, 5 ng/mL insulin, and 1 mM CaCl2 (Ham's F12+4X medium). Assays were carried out 7 to 10 days after seeding, a time coincident with the development of the maximal transepithelial potential difference according to N. Nakahata & T. K. Harden, Biochem. J. 241, 337-344 (1987).
(§2) Nasal cells grown on Transwell Col filters affixed to O-rings were maintained in F12+4X medium and studied 7-10 days after cell plating as described above. For Ca^2+i measurements, cells were loaded with Fura-2 and mounted in a miniature Ussing chamber over an objective of a microscope (Zeiss) coupled to a microfluorimeter, and cytosolic Ca^2+i levels were quantitated as previously described in Paradiso et al., supra. The fluorescence intensity ratio (excitation 340/380; emission λ 450 nm) was collected from a field of 30-40 nasal cells on monolayers and converted to Ca^2+ as previously described in E. H. Larsen et al, J. Physiol. 424, 109-131 (1990). For simultaneous measurements of Cl^− secretion, the transepithelial potential difference (TEP) was measured by a Voltage-Clamp/Pulse Generator (Model VCC600, Physiologic Instruments, San Diego, Calif.) and recorded on a two-channel recorder (Linsesis Model L200S). To calculate changes in Cl^− secretory current (ΔICl^−), a defined 1 sec current pulse was delivered across the monolayer every 10 sec. The nasal tissue was converted from its native Na^+ absorptive state to a Cl^− secretory state by exposing monolayers to a luminal medium containing 0 Na^+/low Cl^− and to a basolateral medium of Krebs bicarbonate Ringer solution.

[2] = system: human nasal epithelial cells; assay: [3H]inositol phosphate formation in polarized human nasal epithelial cells; assay type: cell-based; settings: for EC50: Homo sapiens, Epithelial cell, 10 min, added to mucosal medium, read-out: EC50 for stimulating inositol phosphate formation
Protocol: as §1
Confluent human nasal epithelial cells as described in Example 1 were labeled for 18 h in inositol-free DMEM containing 4.5g/L glucose and 5 μCi/mL of [^3H]myo-inositol. These cells were pre-incubated with 10 mM LiCl and challenged with agonists for an additional 10 min. No changes of medium were made subsequent to addition of [^3H]myo-inositol to avoid release of endogenous ATP from stressed cells. E. R. Lazarowski et al., Br. J Pharmacol. 116, 1619-1627 (1995). Incubations were terminated by addition of 5% ice-cold trichloroacetic acid and the resultant [^3H]inositol phosphates were separated on Dowex AG1-X8 columns as described in A. M. Paradiso et al., Nature 377, 643-646 (1995).

[3] = system: human nasal epithelial cells; assay: Cytosolic Ca2+ measurement (Fura-2) in human nasal epithelial cells; assay type: cell-based
Protocol: as §1, §2

[4] = system: human nasal epithelial cells; assay: Hydrolysis of [3H]UTP and [3H]UDP on human nasal epithelial cell surfaces; assay type: in vitro ADME; settings: for Nucleotide Hydrolysis MUCOSAL / Nucleotide Hydrolysis SEROSAL: 20 min incubation period, mean ± range of two experiments; for Nucleotide Hydrolysis SEROSAL: serosal surface
Protocol: (§3) Nasal monolayers were grown to confluence on 6.5 mm Transwells (Costar) as indicated above. The cells were washed twice and preincubated with 300 μl HEPES-buffered (pH, 7.4) DMEM medium for at least one hour prior to the addition of the [^3H]-nucleotides to ensure that any endogeneously released ATP was degraded. Incubations were initiated by addition of 2 μM [^3H]UTP or [^3H]UDP (0.5 μCi each) to either cell surface. Incubations were terminated at the indicated times by transferring the medium to a tube containing 30 μl 50 mM EDTA and boiled for 2 min. Nucleotides were separated by HPLC (Shimadzu Scientific Instruments, Inc., Columbia, Md.) via a strong anion exchange column (Rainin Instrument Co., Emeryville, Calif.) using a two solvent system consisting of buffer A (45 mM ammonium formate, pH 4.6) and buffer B (250 mM sodium phosphate, pH 2.7). A linear gradient was developed from 100% buffer A to 100% B during the first 25 min. The column then was eluted with 100% buffer B for the […] and with 100% buffer A for an additional 15 min from 45 to 60 min. Absorbance at 260 nm was monitored with a LSA UV detector (Shimadzu), and radioactivity was monitored on-line with a Flo-One detector (Packard Instrument Co., Meridien, Conn.). [^3H]Nucleotides and [^3H]nucleosides were quantitated as previously described. Id. Confluent polarized cells were incubated for 20 min at 37° C. in the presence of 1 μM (0.2 μCi) of [3H]UTP, [^3H]UDP, or [^3H]UDP combined with 100 μM ATP. All additions were to the mucosal bath (300 μl final volume). Incubations were terminated by transferring the mucosal medium to an Eppendorf tube containing 30 μl 50 mM EDTA, followed by boiling. [^3H]Species were separated by HPLC as indicated in Example 6. Hydrolysis of both [^3H]UTP and [^3H]UDP on the surface of human nasal epithelial cells was determined on both cell surfaces by the following procedures: primary cultures of HNE cells were grown to confluence on 6.5 mm Transwells as a polarized epithelium. The cells were washed twice with pre-warmed DMEM-HEPES medium (pH 7.4), and were pre-incubated for 1 hour at 37° C with 0.5 mL of medium added on each side. Incubations were initiated by the addition 50 μl of 10 μM (0.5 μCi) [^3H]UTP or [^3H]UDP on the indicated cell surface. Medium samples were collected during a 20 min incubation period and analyzed by HPLC as described in Example 6. The values represent the mean (±range from the mean) from two experiments performed with duplicate samples.

[5] = as above; assay type: in vitro ADME; settings: human, pH 7.4; mucosal, time course; read-out: Half life (t½)
Protocol: as §3

sheep [6] = assay: Mucociliary clearance in sheep; assay type: in vivo; settings: 400 μmole nebulized
Protocol: Healthy adult ewes were given ^99mTc-labeled serum albumin (^99mTc-HCA) via a nebulized aerosol. The (^99mTc-HCA)(20 mCi) was administered over 5 minutes through a nasotracheal tube introduced under local anesthesia with 2% lidocaine. After administration of the ^99Tc-HCA, the animals were given the test compound UDP. The test compound was administered by nebulization in a volume of 4 mL over a period of 10-12 min. The test compound was given at a dose of 400 μmole. After the administration of the test compound, the animals were extubated. Clearance of the radiolabeled particles was monitored with a gamma camera. Measurements were made a 0, 5, 10, 15, 20, 25, 30, 35, 40, 45, 50, 55, 60, 75, 90, 105 and 120 minutes. Results of this study (n=7) have shown that the test compound promotes clearance of radiolabeled particles when compared to the saline control. […] The response to UDP was maximal at 60 minutes and was maintained for the second hour of the study. The results of this experiment are illustrated graphically in FIG. 6.

sheep [7] = assay: Tracheal mucus velocity in sheep; assay type: in vivo; settings: 400 μmole nebulized
Source text: To measure the effect of UDP on tracheal mucus velocity (TMV), the nasal passages of conscious adult ewes were anesthetized with a 2% lidocaine solution. After local anesthesia was produced, a modified endotracheal tube (7.5 mm) was placed such that the cuff was just below the vocal cords (as verified by fluoroscopy). Inspired air was warmed and humidified. The cuff on the endotracheal tube was inflated only during administration of the test compound to minimize possible impairment of TMV by the cuff. Test compounds were administered by nebulization in a volume of 4 mL over a period of 10-12 min. TMV was measured by fluoroscopy. Ten to twenty radiopaque disks (Teflon/bismuth trioxide; 1 mm diameter; 0.8 mm thick, weighing 1.8 mg) were introduced into the trachea through a modified suction catheter with a puff of compressed air (3-4 L/min). Velocities of the individual disks were recorded on videotape form a portable image intensifier unit. Individual disk velocities were calculated by measuring the distance traveled by each disk during a 1 min observation period. Values reported are the means of the individual disk velocities. A collar was worn by the sheep, which was used as a standard to correct for magnification errors inherent in the fluoroscope.

P2Y2 receptor = P2Y2 receptor (Homo sapiens, UniProt P41231); settings: UTP-free UDP; cited from earlier work
Chain of P2Y2 receptor (P41231 whole entry): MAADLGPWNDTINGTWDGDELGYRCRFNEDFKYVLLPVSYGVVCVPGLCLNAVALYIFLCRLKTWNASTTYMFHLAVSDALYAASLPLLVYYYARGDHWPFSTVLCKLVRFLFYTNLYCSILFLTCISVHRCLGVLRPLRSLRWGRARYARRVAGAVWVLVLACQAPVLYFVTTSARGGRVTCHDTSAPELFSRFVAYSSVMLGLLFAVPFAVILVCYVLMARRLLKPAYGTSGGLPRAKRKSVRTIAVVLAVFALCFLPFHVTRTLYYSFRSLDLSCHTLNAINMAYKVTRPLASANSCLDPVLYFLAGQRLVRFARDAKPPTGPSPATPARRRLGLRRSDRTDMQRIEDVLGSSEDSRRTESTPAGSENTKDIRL

[8] = subsequent 3 μM then 10 μM UDP, mucosal (desensitization)

SMILES: O=c1ccn([C@@H]2O[C@H](COP(=O)(O)OP(=O)(O)OP(=O)(O)O)[C@@H](O)[C@H]2O)c(=O)[nH]1 [UTP, uridine 5′-triphosphate, reference compound]
- Cl- secretory response (ΔICl-), mucosal bath ([1]; 100 μM, mucosal): 74±11 μA/cm^2
- Cl- secretory response (ΔICl-), serosal bath ([1]; 100 μM, serosal): 34±3 μA/cm^2
- ΔCl-, UDP-treated cells ([1]; UDP-treated cells, n=8, the values are: ΔICl- (Cl- secretory current)): -61 ± 10 µA/cm²
- ΔICl-, control cells ([1]; control cells, n=12): −74±11 μA/cm^2
- EC50 [2]: 280 ± 35 nM
- ΔCa2+, UDP-treated cells ([3]; UDP-treated cells, n=8): 310 ± 35 nM
- ΔCa2+, control cells ([3]; control cells, n=19): 374 ± 24 nM
- Hydrolysis rate of mucosal UTP relative to mucosal UDP ([4]; mucosal): 2-3 fold

SMILES: O=c1ccn([C@@H]2O[C@H](COP(=O)(O)OP(=O)(O)OP(=O)(O)O)[C@@H](O)[C@H]2O)c(=O)[nH]1 [[^3H]UTP]
- Hydrolysis ([4]; 1 μM, 20 min, mucosal surface, 37° C.): 73±16%
- Nucleotide Hydrolysis MUCOSAL ([4]; mucosal surface): 17 ± 22
- Nucleotide Hydrolysis SEROSAL [4]: 98 ± 11
- half-life [5]: 14 ± 2 min

SMILES: O=c1ccn([C@@H]2O[C@H](COP(=O)(O)OP(=O)(O)O)[C@@H](O)[C@H]2O)c(=O)[nH]1 [UDP, uridine 5′-diphosphate]
- Time of maximal response (clearance) (sheep [6]): 60 min
- Maximal effect, clearance of radiolabeled particles (sheep [6]; n=7): 33.6±1.6 % clearance
- Time of maximal effect after administration (TMV) (sheep [7]): 15 min
- Activity at the P2Y2 receptor (P2Y2 receptor): essentially inactive
- ΔICl-, mucosal ([1]; 3 μM, mucosal): 16±3 μA·cm^2
- Cl- secretory response (ΔICl-) ([1]; 3 μM, mucosal bath, first addition, n=8): −16.3±3 μA/cm^2
- ΔICl-, serosal ([1]; 3 μM, serosal): 0±0 μA·cm^2
- Magnitude of Cl- secretion response relative to mucosal UTP response ([1]; mucosal): approximately one half
- ΔICl- after subsequent addition [1, 8]: 0
- Accumulation of [3H]inositol phosphates, mucosal ([2]; 100 μM, mucosal): marked accumulation
- Effect on inositol phosphate accumulation, serosal bath ([2]; 100 μM, serosal): negligible effect
- EC50 [2]: 190 ± 27 nM
- Maximal inositol phosphate effect relative to response with mucosal UTP ([2]; mucosal, 100 μM): approximately one half
- ΔCa2+ (mobilization of intracellular calcium) ([3]; 3 μM, mucosal bath, first addition): 66 ± 12 nM
- Maximal calcium mobilization effect relative to response with mucosal UTP ([3]; mucosal, 100 μM): approximately one half
- ΔCa2+ after subsequent addition [3, 8]: 0

SMILES: O=c1ccn([C@@H]2O[C@H](COP(=O)(O)OP(=O)(O)O)[C@@H](O)[C@H]2O)c(=O)[nH]1 [[^3H]UDP]
- Nucleotide Hydrolysis MUCOSAL ([4]; mucosal surface): 87 ± 6
- Nucleotide Hydrolysis SEROSAL [4]: 70 ± 9
- half-life [5]: 27 ± 3 min
